Tested on: A II-infused rat
Assay: A II-infused rat model (ganglion-blocked, intraduodenal dosing), antihypertensive action
Format: in vivo
Details: 10 mg/kg id, one half hour post-administration
Description: In accordance with their ability to antagonize angiotensin II, the compounds of this invention show antihypertensive action in the following A II-infused rat model. Rats are anesthetized with Dial-Urethane (0.60 mL/kg, ip) and the trachea cannulated with PE 240. Either one femoral artery and both femoral veins or the carotid artery and the corresponding jugular vein are cannulated with PE 50. If the jugular vein is cannulated, two cannulas are placed in the one vein. The initial portion of the duodenum (just distal to the stomach) is cannulated with PE 50 via a small midline incision. Arterial pressure and heart rate are measured from the arterial cannula. Ten to 15 min are allowed following surgery for stabilization of arterial pressure. Ganglion blockade is then produced by intravenous administration of mecamylamine at 3 mg/kg (1 mL/kg of a 3 mg/mL solution). Ganglion blockade causes a fall in arterial pressure of about 50 mmHg. Mecamylamine is given every 90 min throughout the remainder of the experiment. An A II infusion is then begun into the other venous cannula at […] (at 9.6 uLmin). The A II infusion returns arterial pressure to or slightly above the control level. Once arterial pressure has stabilized with the A II infusion, baseline values for mean arterial pressure (MAP) and heart rate are taken. […]

O=C(O)c1ccccc1-c1ccc(CNc2nc(C(F)(F)F)nc3ccsc23)cc1 [Example 36]
lowering of the A II dependent blood pressure (average): 45%

— patent publication US5187168A, “Substituted quinazolines as angiotensin II antagonists” (American Home Products Corporation, priority 1991, dated 1993)
